Experimental data from ChEMBL document CHEMBL5678818, “Discovery of potent SOS1 inhibitors that block RAS activation via disruption of the RAS-SOS1 interaction” (Proc Natl Acad Sci U S A, 2019).

Legend:
[1] = test system: Receptor-type tyrosine-protein kinase FLT3 (Homo sapiens), P36888 [UNDEFINED MUTATION]; assay: Inhibition of FLT3 ITD/D835V mutant (unknown origin) assessed as residual activity at 1000 nM by KINOMEscan analysis relative to control
[2] = target: T1, Serine/threonine-protein kinase Nek3 (Homo sapiens) (UniProt P51956); assay: Inhibition of NEK3 (unknown origin) assessed as residual activity at 100 nM by KINOMEscan analysis relative to control
T1 sequence (whole entry): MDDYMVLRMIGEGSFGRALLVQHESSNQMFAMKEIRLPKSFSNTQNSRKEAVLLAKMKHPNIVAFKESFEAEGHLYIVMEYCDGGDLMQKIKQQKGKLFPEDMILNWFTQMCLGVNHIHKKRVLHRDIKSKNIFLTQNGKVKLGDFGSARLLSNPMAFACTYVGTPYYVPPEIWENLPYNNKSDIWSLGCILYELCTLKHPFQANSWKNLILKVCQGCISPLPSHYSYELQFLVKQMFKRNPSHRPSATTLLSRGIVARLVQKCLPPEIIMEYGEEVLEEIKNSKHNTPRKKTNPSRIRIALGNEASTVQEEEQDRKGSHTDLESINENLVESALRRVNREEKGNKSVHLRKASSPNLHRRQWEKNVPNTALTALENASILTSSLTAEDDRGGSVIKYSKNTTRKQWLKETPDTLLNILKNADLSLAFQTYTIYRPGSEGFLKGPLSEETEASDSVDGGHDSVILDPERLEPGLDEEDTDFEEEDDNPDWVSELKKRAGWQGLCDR

[3] = target: High affinity nerve growth factor receptor (Homo sapiens) (UniProt P04629); assay: Inhibition of TRKA (unknown origin) assessed as residual activity at 100 nM by KINOMEscan analysis relative to control
High affinity nerve growth factor receptor (Homo sapiens), sequence (P04629 33-796 limits assumed): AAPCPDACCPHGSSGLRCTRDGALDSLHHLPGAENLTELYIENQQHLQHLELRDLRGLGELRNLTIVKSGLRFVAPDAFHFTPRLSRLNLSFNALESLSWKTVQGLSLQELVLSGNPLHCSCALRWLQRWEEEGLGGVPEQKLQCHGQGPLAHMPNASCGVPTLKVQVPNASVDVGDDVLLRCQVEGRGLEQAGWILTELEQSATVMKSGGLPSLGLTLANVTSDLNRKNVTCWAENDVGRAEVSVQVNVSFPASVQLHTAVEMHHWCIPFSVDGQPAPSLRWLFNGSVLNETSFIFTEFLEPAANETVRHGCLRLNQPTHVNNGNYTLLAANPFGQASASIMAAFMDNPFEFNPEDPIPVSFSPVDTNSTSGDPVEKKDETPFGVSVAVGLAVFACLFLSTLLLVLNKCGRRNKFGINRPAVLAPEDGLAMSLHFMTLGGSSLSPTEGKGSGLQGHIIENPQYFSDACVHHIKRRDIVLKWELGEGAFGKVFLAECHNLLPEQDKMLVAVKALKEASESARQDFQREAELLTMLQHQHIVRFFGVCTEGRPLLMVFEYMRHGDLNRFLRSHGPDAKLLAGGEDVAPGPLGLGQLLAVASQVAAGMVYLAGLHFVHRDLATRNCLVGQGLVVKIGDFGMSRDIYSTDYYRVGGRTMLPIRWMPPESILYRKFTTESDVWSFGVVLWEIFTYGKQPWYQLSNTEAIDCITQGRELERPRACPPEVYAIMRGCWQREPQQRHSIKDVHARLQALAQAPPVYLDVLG

[4] = target: Tyrosine-protein kinase ABL1 (Homo sapiens) (UniProt P00519); assay: Inhibition of nonphosphorylated ABL1 (unknown origin) assessed as residual activity at 100 nM by KINOMEscan analysis relative to control
Tyrosine-protein kinase ABL1 (Homo sapiens), sequence (P00519 whole entry): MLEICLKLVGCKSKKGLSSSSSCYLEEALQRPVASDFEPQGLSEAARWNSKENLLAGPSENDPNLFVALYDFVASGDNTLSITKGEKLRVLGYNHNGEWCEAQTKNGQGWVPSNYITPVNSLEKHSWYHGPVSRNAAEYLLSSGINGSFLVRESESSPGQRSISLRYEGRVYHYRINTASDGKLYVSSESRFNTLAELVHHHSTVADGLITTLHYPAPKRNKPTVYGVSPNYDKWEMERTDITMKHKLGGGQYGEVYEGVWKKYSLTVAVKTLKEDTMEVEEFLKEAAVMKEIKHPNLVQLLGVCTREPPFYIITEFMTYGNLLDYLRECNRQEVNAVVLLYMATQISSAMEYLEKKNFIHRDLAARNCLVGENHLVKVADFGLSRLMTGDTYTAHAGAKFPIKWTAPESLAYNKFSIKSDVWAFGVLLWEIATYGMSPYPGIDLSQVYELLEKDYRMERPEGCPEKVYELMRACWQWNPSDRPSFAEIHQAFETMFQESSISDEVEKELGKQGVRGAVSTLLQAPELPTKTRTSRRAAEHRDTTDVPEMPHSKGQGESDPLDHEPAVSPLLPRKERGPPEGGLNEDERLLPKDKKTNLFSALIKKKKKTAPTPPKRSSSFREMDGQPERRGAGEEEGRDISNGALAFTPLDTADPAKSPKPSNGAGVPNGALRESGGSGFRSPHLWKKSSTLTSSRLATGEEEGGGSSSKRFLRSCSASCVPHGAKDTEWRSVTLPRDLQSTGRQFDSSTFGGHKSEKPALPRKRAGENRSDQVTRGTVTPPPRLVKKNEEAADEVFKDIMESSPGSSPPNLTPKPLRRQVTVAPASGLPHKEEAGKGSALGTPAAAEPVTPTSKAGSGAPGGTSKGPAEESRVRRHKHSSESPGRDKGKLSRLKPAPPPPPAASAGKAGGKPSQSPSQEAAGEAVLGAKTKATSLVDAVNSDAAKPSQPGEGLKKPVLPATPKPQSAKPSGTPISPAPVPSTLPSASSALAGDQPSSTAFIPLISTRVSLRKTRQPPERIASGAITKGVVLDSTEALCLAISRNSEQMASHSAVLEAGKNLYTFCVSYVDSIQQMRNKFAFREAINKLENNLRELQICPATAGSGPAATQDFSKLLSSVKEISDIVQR

[5] = target: MAP kinase-activated protein kinase 2 (Homo sapiens) (UniProt P49137); assay: Inhibition of MAPKAPK2 (unknown origin) assessed as residual activity at 100 nM by KINOMEscan analysis relative to control
MAP kinase-activated protein kinase 2 (Homo sapiens), sequence (P49137 whole entry, looked up): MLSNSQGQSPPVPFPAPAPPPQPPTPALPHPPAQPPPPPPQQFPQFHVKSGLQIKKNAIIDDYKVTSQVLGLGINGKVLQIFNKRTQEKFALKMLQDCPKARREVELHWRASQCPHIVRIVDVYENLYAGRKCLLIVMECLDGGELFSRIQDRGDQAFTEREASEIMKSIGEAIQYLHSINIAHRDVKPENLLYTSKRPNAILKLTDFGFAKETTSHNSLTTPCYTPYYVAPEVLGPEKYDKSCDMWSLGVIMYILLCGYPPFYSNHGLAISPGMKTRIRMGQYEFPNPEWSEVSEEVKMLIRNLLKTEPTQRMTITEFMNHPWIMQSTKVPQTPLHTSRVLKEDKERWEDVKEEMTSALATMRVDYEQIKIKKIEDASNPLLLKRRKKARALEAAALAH

[6] = target: Serine/threonine-protein kinase N2 (Homo sapiens) (UniProt Q16513); assay: Inhibition of PKN2 (unknown origin) assessed as residual activity at 100 nM by KINOMEscan analysis relative to control
Serine/threonine-protein kinase N2 (Homo sapiens), sequence (Q16513 whole entry, looked up): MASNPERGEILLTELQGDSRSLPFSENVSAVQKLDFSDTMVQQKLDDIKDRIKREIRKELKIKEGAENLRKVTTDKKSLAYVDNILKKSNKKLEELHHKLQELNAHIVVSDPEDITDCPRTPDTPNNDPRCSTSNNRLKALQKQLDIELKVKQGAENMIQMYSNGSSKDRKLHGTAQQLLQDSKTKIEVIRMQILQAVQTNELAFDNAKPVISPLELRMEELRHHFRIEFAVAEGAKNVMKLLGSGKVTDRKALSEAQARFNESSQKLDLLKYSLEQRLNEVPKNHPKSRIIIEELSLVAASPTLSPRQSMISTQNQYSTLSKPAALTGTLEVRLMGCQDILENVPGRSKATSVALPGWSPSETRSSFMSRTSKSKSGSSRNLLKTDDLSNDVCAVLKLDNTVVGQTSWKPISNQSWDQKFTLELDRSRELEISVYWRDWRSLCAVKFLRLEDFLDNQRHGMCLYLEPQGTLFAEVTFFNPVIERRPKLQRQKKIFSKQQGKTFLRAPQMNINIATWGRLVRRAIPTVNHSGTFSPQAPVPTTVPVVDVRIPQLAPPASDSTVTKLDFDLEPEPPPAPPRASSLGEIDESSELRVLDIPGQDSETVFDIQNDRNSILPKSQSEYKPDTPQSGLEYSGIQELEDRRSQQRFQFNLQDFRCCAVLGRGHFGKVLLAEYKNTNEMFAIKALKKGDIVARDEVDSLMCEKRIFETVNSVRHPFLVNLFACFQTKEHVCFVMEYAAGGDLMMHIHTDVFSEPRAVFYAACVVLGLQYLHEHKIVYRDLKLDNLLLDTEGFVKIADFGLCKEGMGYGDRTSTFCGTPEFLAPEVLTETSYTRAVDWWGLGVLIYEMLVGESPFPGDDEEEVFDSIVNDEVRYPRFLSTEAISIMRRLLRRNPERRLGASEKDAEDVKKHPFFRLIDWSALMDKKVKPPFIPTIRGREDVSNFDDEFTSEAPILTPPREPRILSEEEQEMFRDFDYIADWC

[7] = target: T2, Hormonally up-regulated neu tumor-associated kinase (Homo sapiens) (UniProt P57058); assay: Inhibition of HUNK (unknown origin) assessed as residual activity at 100 nM by KINOMEscan analysis relative to control
T2 sequence (whole entry): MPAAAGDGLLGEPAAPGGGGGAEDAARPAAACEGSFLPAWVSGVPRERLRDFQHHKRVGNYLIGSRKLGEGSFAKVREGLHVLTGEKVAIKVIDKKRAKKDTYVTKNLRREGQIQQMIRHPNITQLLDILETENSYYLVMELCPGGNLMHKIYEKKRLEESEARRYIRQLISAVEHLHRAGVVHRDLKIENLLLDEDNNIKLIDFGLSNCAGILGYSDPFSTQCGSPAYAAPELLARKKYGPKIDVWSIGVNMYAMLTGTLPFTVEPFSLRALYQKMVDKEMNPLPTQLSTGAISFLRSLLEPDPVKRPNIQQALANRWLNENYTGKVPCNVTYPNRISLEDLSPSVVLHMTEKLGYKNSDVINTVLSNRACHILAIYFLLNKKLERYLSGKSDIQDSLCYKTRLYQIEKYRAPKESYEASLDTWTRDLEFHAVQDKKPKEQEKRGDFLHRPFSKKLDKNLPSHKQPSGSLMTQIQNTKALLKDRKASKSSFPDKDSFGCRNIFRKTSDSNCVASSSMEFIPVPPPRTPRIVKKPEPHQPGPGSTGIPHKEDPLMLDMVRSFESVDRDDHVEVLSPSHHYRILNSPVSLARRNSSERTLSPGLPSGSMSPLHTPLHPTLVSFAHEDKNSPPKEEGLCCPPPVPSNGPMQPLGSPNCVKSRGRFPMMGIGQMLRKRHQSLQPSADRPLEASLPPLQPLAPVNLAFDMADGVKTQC

Homo sapiens = species: Homo sapiens; assay: Inhibition of PIP5K1C (unknown origin) assessed as residual activity at 100 nM by KINOMEscan analysis relative to control
[8] = target: Calcium/calmodulin-dependent protein kinase kinase 1 (Homo sapiens) (UniProt Q8N5S9); assay: Inhibition of CAMKK1 (unknown origin) assessed as residual activity at 100 nM by KINOMEscan analysis relative to control
Calcium/calmodulin-dependent protein kinase kinase 1 (Homo sapiens), sequence (Q8N5S9 whole entry, looked up): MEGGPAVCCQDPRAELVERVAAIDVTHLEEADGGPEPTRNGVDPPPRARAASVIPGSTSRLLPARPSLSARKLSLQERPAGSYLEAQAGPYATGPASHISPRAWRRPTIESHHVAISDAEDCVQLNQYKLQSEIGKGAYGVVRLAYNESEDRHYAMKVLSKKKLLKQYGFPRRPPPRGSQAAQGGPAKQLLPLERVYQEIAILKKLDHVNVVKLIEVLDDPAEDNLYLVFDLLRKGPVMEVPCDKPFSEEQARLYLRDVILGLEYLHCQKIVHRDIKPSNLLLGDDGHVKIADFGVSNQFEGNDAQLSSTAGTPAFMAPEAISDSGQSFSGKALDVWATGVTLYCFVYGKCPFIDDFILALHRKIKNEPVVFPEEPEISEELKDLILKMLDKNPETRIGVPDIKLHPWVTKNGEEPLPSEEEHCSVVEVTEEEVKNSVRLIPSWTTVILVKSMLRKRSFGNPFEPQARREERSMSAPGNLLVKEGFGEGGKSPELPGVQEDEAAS

[9] = target: Tyrosine-protein kinase Fer (Homo sapiens) (UniProt P16591); assay: Inhibition of FER (unknown origin) assessed as residual activity at 100 nM by KINOMEscan analysis relative to control
[10] = target: T3, Serine/threonine-protein kinase tousled-like 1 (Homo sapiens) (UniProt Q9UKI8); assay: Inhibition of TLK1 (unknown origin) assessed as residual activity at 100 nM by KINOMEscan analysis relative to control
T3 sequence (whole entry): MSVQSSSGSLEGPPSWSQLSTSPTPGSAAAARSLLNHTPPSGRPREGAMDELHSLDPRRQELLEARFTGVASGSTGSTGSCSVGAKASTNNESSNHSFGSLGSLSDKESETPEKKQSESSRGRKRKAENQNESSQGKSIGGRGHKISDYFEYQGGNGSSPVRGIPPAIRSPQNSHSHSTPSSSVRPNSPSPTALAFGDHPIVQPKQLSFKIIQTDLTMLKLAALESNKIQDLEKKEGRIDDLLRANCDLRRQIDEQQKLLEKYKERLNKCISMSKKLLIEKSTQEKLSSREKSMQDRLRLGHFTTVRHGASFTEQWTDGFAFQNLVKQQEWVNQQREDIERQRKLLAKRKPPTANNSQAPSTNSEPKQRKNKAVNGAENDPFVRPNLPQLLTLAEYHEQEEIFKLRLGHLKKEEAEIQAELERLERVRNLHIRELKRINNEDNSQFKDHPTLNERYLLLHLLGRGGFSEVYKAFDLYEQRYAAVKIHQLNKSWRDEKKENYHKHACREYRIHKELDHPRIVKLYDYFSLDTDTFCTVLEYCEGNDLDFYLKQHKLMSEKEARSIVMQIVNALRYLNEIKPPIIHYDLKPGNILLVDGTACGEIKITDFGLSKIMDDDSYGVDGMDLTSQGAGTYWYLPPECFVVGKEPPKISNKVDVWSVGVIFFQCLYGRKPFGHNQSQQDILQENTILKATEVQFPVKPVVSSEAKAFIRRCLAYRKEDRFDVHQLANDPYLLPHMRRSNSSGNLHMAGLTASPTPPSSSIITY

[11] = target: Mast/stem cell growth factor receptor Kit (Homo sapiens) (UniProt P10721); assay: Inhibition of KIT (unknown origin) assessed as residual activity at 100 nM by KINOMEscan analysis relative to control

Receptor-type tyrosine-protein kinase FLT3 (Homo sapiens), P36888 [UNDEFINED MUTATION], sequence (P36888 whole entry, looked up, stated change not applied): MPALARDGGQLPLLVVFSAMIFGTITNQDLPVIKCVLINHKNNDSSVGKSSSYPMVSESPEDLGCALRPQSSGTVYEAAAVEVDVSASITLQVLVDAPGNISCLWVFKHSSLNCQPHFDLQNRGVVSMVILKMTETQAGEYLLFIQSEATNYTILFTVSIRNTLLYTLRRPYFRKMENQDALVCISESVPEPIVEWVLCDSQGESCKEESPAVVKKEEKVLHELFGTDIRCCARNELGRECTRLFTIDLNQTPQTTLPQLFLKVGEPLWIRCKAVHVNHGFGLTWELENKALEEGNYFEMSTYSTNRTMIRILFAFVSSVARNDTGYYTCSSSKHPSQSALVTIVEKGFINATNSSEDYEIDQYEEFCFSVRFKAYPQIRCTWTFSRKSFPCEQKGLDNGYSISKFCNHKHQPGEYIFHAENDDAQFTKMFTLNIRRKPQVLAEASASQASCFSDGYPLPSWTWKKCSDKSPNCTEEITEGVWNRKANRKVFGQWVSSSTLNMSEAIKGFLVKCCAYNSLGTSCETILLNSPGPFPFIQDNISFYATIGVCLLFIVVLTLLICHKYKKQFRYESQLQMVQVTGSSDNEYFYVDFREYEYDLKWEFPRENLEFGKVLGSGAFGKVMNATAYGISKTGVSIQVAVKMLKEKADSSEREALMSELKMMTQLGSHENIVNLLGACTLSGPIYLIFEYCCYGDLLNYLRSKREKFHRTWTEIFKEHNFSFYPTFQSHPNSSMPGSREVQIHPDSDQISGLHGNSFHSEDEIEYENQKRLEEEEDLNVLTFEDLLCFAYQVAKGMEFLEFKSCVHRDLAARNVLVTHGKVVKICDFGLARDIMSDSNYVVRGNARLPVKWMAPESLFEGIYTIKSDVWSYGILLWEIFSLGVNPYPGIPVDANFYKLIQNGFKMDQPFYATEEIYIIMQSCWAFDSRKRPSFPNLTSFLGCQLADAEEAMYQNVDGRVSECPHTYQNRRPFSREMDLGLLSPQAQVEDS

Structure (SMILES)	Activity [1]	Activity [2]	Activity [3]	Activity [4]	Activity [5]	Activity [6]	Activity [7]	Activity (Homo sapiens)	Activity [8]	Activity [9]	Activity [10]	Activity [11]
COc1cc2nc(C)nc(N[C@H](C)c3cccc(-c4cn[nH]c4)c3)c2cc1OC	100%											
COc1cc2ncnc(N[C@H](C)c3cccc4ccccc34)c2cc1OC		97%	100%	99%	83%	88%	91%	63%	76%	100%	79%	100%
